{
  "source": "patent US5342604A",
  "about": "(The Dow Chemical Company, priority 1992, dated 1994)",
  "key": {"[1]": {"conditions": "radionuclide; cited from earlier work"}, "[2]": {"experiment": "Lability of yttrium complexes on addition of excess metal", "assay_type": "physicochemical", "conditions": "Y", "protocol": "(§1) A disposable 10 ml plastic (Biorad) column was filled with 1 to 2 ml of water-swelled Sephadex™ C-25 cation exchange resin. The water was pressure eluted to the top of the resin. Fifteen μl of the complex (or more if counts were low) were added to the top of the resin. This was followed by 2 ml of 4:1 (V:V) isotonic saline:conc. ammonium hydroxide solution as an eluent which was allowed to drip into a counting tube. This was also pressure eluted to the top of the resin. An additional 2 ml of the eluent were added and the column pressure eluted to remove all liquid. The dried resin was then placed in a third counting tube and the three tubes counted on a NaI well counter using a Canberra multichannel analyzer linked to a computer. The percent complex was determined by dividing the number of counts in the two elutions by the total counts in the elutions plus the column, all times 100. By this method, uncomplexed yttrium was retained on the column.\nThe 1:1 complex of yttrium with 1-(p-aminobenzyl)diethylenetriaminepentaacetic acid (ABDTPA), a well known bifunctional chelant used in the literature, and with the ligand of Example 2 (Now Ex. XVI) and Example 12 (now Ex. XVII) were prepared using the techniques described earlier. Several 100 microliter aliquots were then withdrawn into separate centrifuge tubes. Excess metal was added such that the total volume change is minimized and the time noted. One-half hour after metal addition, the percent complex was determined by the Sephadex™ C-25 method and this was compared to the original amount of complex. The percent complex versus added metal gives an indication as to the lability of the ligand-metal complex. Results are given below and are compared to the EDTA-yttrium complex."}, "[3]": {"experiment": "Inertness of antibody-complex conjugates challenged with excess DTPA", "assay_type": "physicochemical", "conditions": "1000 fold molar excess of DTPA, pH 7.4, one hour", "protocol": "The purified antibody-complexes were added to HEPES buffer (N-2-hydroxyethylpiperazine-N'-2-ethanesulfonic acid) at pH 7.4 and treated with an appropriate amount of 0.1M DTPA solution (pH 7.4) to ensure a 1000 fold molar excess of DTPA over complex attached to antibody. After one hour an aliquot was removed and the antibody-complex conjugates were separated from low molecular weight substances using gel-filtration."}, "[4]": {"experiment": "In vivo screening of bifunctional chelates: biodistribution, percent injected dose in liver", "conditions": "rat, i.v. tail vein, 2 hours"}, "[5]": {"experiment": "Percent complex determination, yttrium complexes (Sephadex C-25 cation exchange)", "assay_type": "physicochemical", "conditions": "Y", "protocol": "The yttrium and/or samarium complexes of several of the compounds were prepared and percent complexation determined as follows:\nComplexes were made by preparing a 0.0003M yttrium solution in water. (YCl3 ·6H2 O, 303.26 g/mole; Y(OAc)3, 12.1% H2 0). Radioactive YCl3 (Oakridge National Laboratories) was added to give the desired number of counts. Ten μl of ligand solution (at 0.03M) were added to 990 μl of the Y solution, giving a ligand-to-metal ratio of 1:1. (Ten times the amount of ligand solution was used for a 10:1 ligand to metal ratio.) The pH was then adjusted to 7.4 using microliter quantities of hydrochloric acid or sodium hydroxide. The solution was then tested for the amount of complexed yttrium using the cation exchange method given below.\nas §1"}, "[6]": {"test_system": "osteosarcoma in the right proximal humerus", "experiment": "Treatment of a dog with osteosarcoma", "assay_type": "in vivo", "conditions": "Sm-153, 300 times molar excess ligand, I.V. 0.95 mCi/Kg, one week after injection", "protocol": "A dog was presented with an osteosarcoma in the right proximal humerus and walked with significant lameness. A complex was prepared using the ligand of Example 10 with a Sm-153 solution. The concentration of Sm was 3×10^-4 M and the ligand was used with a 300 times molar excess. The specific activity of the Sm-153 was 30 mCi/ml. The dog was given an I.V. injection of this complex containing 0.95 mCi of Sm-153 per Kg body weight of the dog."}, "Biodistribution in rats": {"experiment": "Biodistribution in rats", "conditions": "2 hours"}, "[7]": {"experiment": "Biodistribution in rabbit", "assay_type": "in vivo", "conditions": "Y-90, 10 times molar excess ligand", "protocol": "Muscle was calculated using 46% of body weight.\nA rabbit was injected in the same manner as the rats with a formulation having Y-90 with Y at 3×10^-4 M and the ligand of Example 10 at 10 times molar excess."}, "[8]": {"experiment": "Percent complex determination, samarium complexes (Sephadex C-25 cation exchange)", "assay_type": "physicochemical", "conditions": "Sm", "protocol": "as §1, with “100.” for “100. By this method, uncomplexed yttrium was retained on the column.”\nSamarium complexes were formed as described previously for yttrium complexes except that 0.0003M samarium was prepared by dissolution of Sm2 03 (348.7 g mole) in 0.1M hydrochloric acid. […] Percent complex determination was made in the same manner as for the yttrium complex."}, "[9]": {"conditions": "cited from earlier work"}, "[10]": {"conditions": "Metal/Ligand Molar Ratio 10, one-half hour after metal addition"}, "[11]": {"conditions": "Metal/Ligand Molar Ratio 100, one-half hour after metal addition"}, "[12]": {"conditions": "Metal/Ligand Molar Ratio 250, one-half hour after metal addition"}, "[13]": {"conditions": "Metal/Ligand Molar Ratio 500, one-half hour after metal addition"}, "[14]": {"conditions": "Ho-166, 300 times molar excess ligand"}, "[15]": {"conditions": "Sm-153, 10 times molar excess ligand"}, "[16]": {"conditions": "Sm-153, 300 times molar excess ligand"}},
  "note": "Like-named read-outs stand apart in the source and are kept apart here.",
  "data": [
    {"compound": "[89Sr]", "note": "[Strontium-89]", "values": [
      {"measurement": "half-life", "setting": "[1]", "result": 50.4, "unit": "days"}
    ]},
    {"compound": "Nc1ccc(CC(CN(CCN(CC(=O)O)CC(=O)O)CC(=O)O)N(CC(=O)O)CC(=O)O)cc1", "note": "(centres unmarked) [ABDTPA, 1-(p-aminobenzyl)diethylenetriaminepentaacetic acid]", "values": [
      {"measurement": "% Complex", "setting": "[2]; Metal/Ligand Molar Ratio 1", "result": 97, "unit": "%"},
      {"measurement": "% Complex", "setting": "[2]; [10]", "result": 95, "unit": "%"},
      {"measurement": "% Complex", "setting": "[2]; [11]", "result": 92, "unit": "%"},
      {"measurement": "% Complex", "setting": "[2]; [12]", "result": 87, "unit": "%"},
      {"measurement": "% Complex", "setting": "[2]; [13]", "result": 70, "unit": "%"},
      {"measurement": "yttrium lost from antibody-complex conjugate", "setting": "[3]", "result": "over 98%"}
    ]},
    {"compound": "CC(=O)Nc1cc(C(C(=O)O)N(CC(=O)O)CC(=O)O)c(O)c(C(C(=O)O)N(CC(=O)O)CC(=O)O)c1", "note": "(centres unmarked) [Example 10, 2,6-BIS{[BIS(CARBOXYMETHYL)AMINO](CARBOXY)METHYL}-4-(ACETAMIDO) PHENOL]", "values": [
      {"measurement": "% Injected Dose in Liver", "setting": "[4]; Ho, (300)", "result": 0.26, "unit": "%"},
      {"measurement": "% Injected Dose in Liver", "setting": "[4]; Sm, (300)", "result": 0.12, "unit": "%"},
      {"measurement": "% Injected Dose in Liver", "setting": "[4]; Sm, ligand/metal 10:1", "result": 1.3, "unit": "%"},
      {"measurement": "% Injected Dose in Liver", "setting": "[4]; Y, ligand/metal 10:1", "result": 0.39, "unit": "%"},
      {"measurement": "% Complex", "setting": "[5]; ligand/metal 10:1", "result": 98, "unit": "%"},
      {"measurement": "dog's gait", "setting": "[6]", "result": "noticeably improved"},
      {"measurement": "biodistribution, blood (% dose)", "setting": "Biodistribution in rats; [14]", "result": 0.09, "unit": "%"},
      {"measurement": "biodistribution, bone (% dose)", "setting": "Biodistribution in rats; [14]", "result": 52.9, "unit": "%"},
      {"measurement": "biodistribution, liver (% dose)", "setting": "Biodistribution in rats; [14]", "result": 0.26, "unit": "%"},
      {"measurement": "biodistribution, muscle (% dose)", "setting": "Biodistribution in rats; [14]", "result": 1.1, "unit": "%"},
      {"measurement": "biodistribution, spleen (% dose)", "setting": "Biodistribution in rats; [14]", "result": 0.007, "unit": "%"},
      {"measurement": "biodistribution, blood (% dose)", "setting": "Biodistribution in rats; [15]", "result": 0.18, "unit": "%"},
      {"measurement": "biodistribution, bone (% dose)", "setting": "Biodistribution in rats; [15]", "result": 48.5, "unit": "%"},
      {"measurement": "biodistribution, liver (% dose)", "setting": "Biodistribution in rats; [15]", "result": 1.3, "unit": "%"},
      {"measurement": "biodistribution, muscle (% dose)", "setting": "Biodistribution in rats; [15]", "result": 0.73, "unit": "%"},
      {"measurement": "biodistribution, spleen (% dose)", "setting": "Biodistribution in rats; [15]", "result": 0.01, "unit": "%"},
      {"measurement": "biodistribution, blood (% dose)", "setting": "Biodistribution in rats; [16]", "result": 0.05, "unit": "%"},
      {"measurement": "biodistribution, bone (% dose)", "setting": "Biodistribution in rats; [16]", "result": 52.7, "unit": "%"},
      {"measurement": "biodistribution, liver (% dose)", "setting": "Biodistribution in rats; [16]", "result": 0.12, "unit": "%"},
      {"measurement": "biodistribution, muscle (% dose)", "setting": "Biodistribution in rats; [16]", "result": 0.23, "unit": "%"},
      {"measurement": "biodistribution, spleen (% dose)", "setting": "Biodistribution in rats; [16]", "result": 0.005, "unit": "%"},
      {"measurement": "biodistribution, blood (% dose)", "setting": "[7]", "result": 0.68, "unit": "%"},
      {"measurement": "biodistribution, bone (% dose)", "setting": "[7]", "result": 59, "unit": "%"},
      {"measurement": "biodistribution, liver (% dose)", "setting": "[7]", "result": 1.1, "unit": "%"},
      {"measurement": "biodistribution, muscle (% dose)", "setting": "[7]", "result": 1.5, "unit": "%"},
      {"measurement": "biodistribution, spleen (% dose)", "setting": "[7]", "result": 0.19, "unit": "%"}
    ]},
    {"compound": "Nc1cc(CN(CCN(CC(=O)O)CC(=O)O)CC(=O)O)c(O)c(CN(CCN(CC(=O)O)CC(=O)O)CC(=O)O)c1", "note": "[Example 12]", "values": [
      {"measurement": "% Complex", "setting": "[2]; Metal/Ligand Molar Ratio 1", "result": 95, "unit": "%"},
      {"measurement": "% Complex", "setting": "[2]; [10]", "result": 93, "unit": "%"},
      {"measurement": "% Complex", "setting": "[2]; [11]", "result": 90, "unit": "%"},
      {"measurement": "% Complex", "setting": "[2]; [12]", "result": 90, "unit": "%"},
      {"measurement": "% Complex", "setting": "[2]; [13]", "result": 79, "unit": "%"},
      {"measurement": "yttrium lost from antibody-complex conjugate", "setting": "[3]", "result": "approximately 39%"},
      {"measurement": "% Complex", "setting": "[5]; ligand/metal 10:1", "result": 99, "unit": "%"},
      {"measurement": "% Complex", "setting": "[5]; ligand/metal ratio about 1:1", "result": 98, "unit": "%"},
      {"measurement": "% Complex", "setting": "[8]; ligand/metal 10:1", "result": 98, "unit": "%"},
      {"measurement": "% Complex", "setting": "[8]; ligand/metal ratio about 1:1", "result": 98, "unit": "%"}
    ]},
    {"compound": "O=C(O)CN(CC(=O)O)CC(=O)O", "note": "[NTA, nitrilotri-acetic acid, reference compound]", "values": [
      {"measurement": "% Injected Dose in Liver", "setting": "[4]; Sm, ligand/metal about 300:1", "result": 8.6, "unit": "%"},
      {"measurement": "concentrations of radioactivity in organs", "setting": "[9]; mouse, in vivo", "result": "high concentrations of radioactivity were observed in the liver, spleen, kidney, lung and bone"}
    ]},
    {"compound": "O=C(O)CN(CCN(CC(=O)O)CC(=O)O)CC(=O)O", "note": "[EDTA, ethylenediaminetetraacetic acid]", "values": [
      {"measurement": "% Injected Dose in Liver", "setting": "[4]; Sm, ligand/metal 5:1", "result": 8.4, "unit": "%"},
      {"measurement": "% Injected Dose in Liver", "setting": "[4]; Sm, ligand/metal about 300:1", "result": 4.4, "unit": "%"},
      {"measurement": "% Complex", "setting": "[2]; Metal/Ligand Molar Ratio 1", "result": 98, "unit": "%"},
      {"measurement": "% Complex", "setting": "[2]; [10]", "result": 86, "unit": "%"},
      {"measurement": "% Complex", "setting": "[2]; [11]", "result": 78, "unit": "%"},
      {"measurement": "% Complex", "setting": "[2]; [12]", "result": 48, "unit": "%"},
      {"measurement": "% Complex", "setting": "[2]; [13]", "result": 16, "unit": "%"},
      {"measurement": "concentrations of radioactivity in organs", "setting": "[9]; Sc-46, Y-91, La-140, Sm-153, chelant to metal 5:1", "result": "high concentrations of radioactivity were observed in the liver, spleen, kidney, lung and bone"}
    ]}
  ]
}
